These results are taken from US10112941B2, “Tricyclic compounds as anticancer agents” (BRISTOL-MYERS SQUIBB COMPANY, priority 2013, dated 2018).

This assay has as its target BRD4 (Homo sapiens, UniProt O60885). Put plainly: Time Resolved Fluorescence Resonance Energy Transfer (TR-FRET) binding assay, BRD4. The conditions noted are these: one of the FRET assays described. Background: In TR-FRET formats the signal depends on donor and acceptor labels being close together.

Where two headings read alike, the source gives them in different places. A value given as a limit tells only on which side of the number the result lay.

Consider `Cc1nnn(C)c1-c1cnc2c3cc(S(C)(=O)=O)ccc3n([C@H](c3ccccc3)C3CCOCC3)c2c1` [Example 375, 5-{8-Methanesulfonyl-5-[(S)-oxan-4-yl(phenyl)methyl]-5H-pyrido[3,2-b]indol-3-yl}-1,4-dimethyl-1H-1,2,3-triazole], for which the IC50 (read-out: FRET BRD4 IC50) was less than 5 nM.
Same read-out and setting: then `COc1cc(C(C)(C)O)cc2c1c1ncc(-c3c(C)nnn3C)cc1n2C(c1ccccc1F)C1CCOCC1` (single isomer, unassigned) [Example 137, 2-[3-(Dimethyl-1H-1,2,3-triazol-5-yl)-5-[(2-fluorophenyl)(oxan-4-yl)methyl]-9-methoxy-5H-pyrido[3,2-b]indol-7-yl]propan-2-ol], with less than 5 nM; and `[2H]C([2H])([2H])c1nnn(C)c1-c1cnc2c3c(F)cc(S(C)(=O)=O)cc3n([C@H](c3ccccc3)C3CCOCC3)c2c1` [Example 195, 5-{9-Fluoro-7-methanesulfonyl-5-[(S)-oxan-4-yl(phenyl)methyl]-5H-pyrido[3,2-b]indol-3-yl}-4-(^2H3)methyl-1-methyl-1H-1,2,3-triazole], with less than 5 nM; and `Cc1nnn(C)c1-c1cnc2c3ccc(C(C)(C)O)cc3n(C(c3cccnn3)C3CCOCC3)c2c1` (single isomer, unassigned) [Example 296], with less than 5 nM.
Same read-out and setting: then `[2H]C([2H])([2H])c1nnn(C)c1-c1cnc2c3cc(F)c(C(C)(O)C4CC4)cc3n([C@H](c3ccccc3)C3CCOCC3)c2c1` (stereo partly drawn) [Example 445, 1-Cyclopropyl-1-{8-fluoro-3-[4-(^2H3)methyl-1-methyl-1H-1,2,3-triazol-5-yl]-5-[(S)-oxan-4-yl(phenyl)methyl]-5H-pyrido[3,2-b]indol-7-yl}ethan-1-ol], with less than 5 nM; and `[2H][C@@](c1ccccc1F)(C1CCOCC1)n1c2cc(C(C)(C)O)ccc2c2ncc(-c3c(C)nnn3C)cc21` [Example 92, 2-[3-(Dimethyl-1H-1,2,3-triazol-5-yl)-5-[(S)-oxan-4-yl(2-fluorophenyl)(^2H)methyl]-5H-pyrido[3,2-b]indol-7-yl]propan-2-ol], with less than 5 nM; and `Cn1nncc1-c1cnc2c3ccc(C(C)(C)O)cc3n(C(c3ccc(F)cc3)C3CCOCC3)c2c1` (single isomer, unassigned) [Example 67, 2-{5-[(4-Fluorophenyl)(oxan-4-yl)methyl]-3-(1-methyl-1H-1,2,3-triazol-5-yl)-5H-pyrido[3,2-b]indol-7-yl}propan-2-ol], with less than 25 nM.
Still for that read-out and setting: then `COc1ccc(C(C2CCOCC2)n2c3cc(C(C)(C)O)ccc3c3ncc(-c4c(C)nnn4C)cc32)c(F)c1F` (single isomer, unassigned) [Example 122, 2-{5-[(2,3-Difluoro-4-methoxyphenyl)(oxan-4-yl)methyl]-3-(dimethyl-1H-1,2,3-triazol-5-yl)-5H-pyrido[3,2-b]indol-7-yl}propan-2-ol], with less than 5 nM.
`[2H]C([2H])([2H])c1onc(C)c1-c1cnc2c3ccc(C(C)(C)O)cc3n([C@H](c3ccc(F)cc3)C3CCOCC3)c2c1` [Example 284, 2-{5-[(S)-(4-Fluorophenyl)(oxan-4-yl)methyl]-3-[5-(^2H3)methyl-3-methyl-1,2-oxazol-4-yl]-5H-pyrido[3,2-b]indol-7-yl}propan-2-ol] returned an IC50 (FRET BRD4 IC50 (nM)) of less than 5 nM.
Turning to `Cc1cnn(C)c1-c1cnc2c3ccc(S(C)(=O)=O)cc3n([C@H](c3ccccc3)C3CCOCC3)c2c1` [Example 417, 5-{7-Methanesulfonyl-5-[(S)-oxan-4-yl(phenyl)methyl]-5H-pyrido[3,2-b]indol-3-yl}-1,4-dimethyl-1H-pyrazole], the IC50 (read-out: FRET BRD4 IC50) was less than 5 nM.
As for `Cc1nnn(C)c1-c1cnc2c3ccc(C(C)(C)O)cc3n(C(c3ccc(F)cc3)C3CCC3)c2c1` (single isomer, unassigned) [Example 251, 2-{5-[Cyclobutyl(4-fluorophenyl)methyl]-3-(dimethyl-1H-1,2,3-triazol-5-yl)-5H-pyrido[3,2-b]indol-7-yl}propan-2-ol], the IC50 (read-out: FRET BRD4 IC50) was less than 5 nM.
Same read-out and setting: in the case of `Cc1nnn(C)c1-c1cnc2c3ccc(C(C)(O)C4CC4)c(F)c3n([C@H](c3ccccc3)C3CCOCC3)c2c1` (stereo partly drawn) [Example 415, 1-Cyclopropyl-1-{6-fluoro-3-[4-(^2H3)methyl-1-methyl-1H-1,2,3-triazol-5-yl]-5-[(S)-oxan-4-yl(phenyl)methyl]-5H-pyrido[3,2-b]indol-7-yl}ethan-1-ol] it was less than 5 nM; in that of `Cc1nnn(C)c1-c1cnc2c3c(F)cc(C(C)(C)O)cc3n(C(c3c(F)cc(F)cc3F)C3CCOCC3)c2c1` (single isomer, unassigned) [Example 104, 2-[3-(Dimethyl-1H-1,2,3-triazol-5-yl)-9-fluoro-5-[oxan-4-yl(2,4,6-trifluorophenyl)methyl]-5H-pyrido[3,2-b]indol-7-yl]propan-2-ol], less than 5 nM.
Still for that read-out and setting: in the case of `Cc1nnn(C)c1-c1cnc2c3cc(F)c(C(C)(O)C4CC4)cc3n([C@H](c3ccccc3F)C3CCOCC3)c2c1` (single isomer, unassigned) [Example 447] it was less than 5 nM.
On the same count and under the same terms, then `[2H]C([2H])([2H])c1onc(C)c1-c1cnc2c3ccc(C(C)(C)O)cc3n(C([2H])(c3ccncc3F)C3CCOCC3)c2c1` (centres unmarked) [Example 343, 2-{5-[(3-Fluoropyridin-4-yl)(oxan-4-yl)(^2H)methyl]-3-[5-(^2H3)methyl-3-methyl-1,2-oxazol-4-yl]-5H-pyrido[3,2-b]indol-7-yl}propan-2-ol], with less than 5 nM.
For the compound `Cc1nnn(C)c1-c1cnc2c3ccc(C(C)(C)O)cc3n([C@@H](c3ccccc3F)C3CCOCC3)c2c1` [Example 93, 2-[3-(dimethyl-1H-1,2,3-triazol-5-yl)-5-[(R)-oxan-4-yl(2-fluorophenyl)(^2H)methyl]-5H-pyrido[3,2-b]indol-7-yl]propan-2-ol], the IC50 (read-out: FRET BRD4 IC50) is less than 5 nM.
Still for that read-out and setting: then `COc1ccc(C(C2CCOCC2)n2c3cc(C(C)(C)O)ccc3c3ncc(-c4c(C)nnn4C)cc32)c(F)c1F` (single isomer, unassigned) [Example 121, 2-{5-[(2,3-Difluoro-4-methoxyphenyl)(oxan-4-yl)methyl]-3-(dimethyl-1H-1,2,3-triazol-5-yl)-5H-pyrido[3,2-b]indol-7-yl}propan-2-ol], with less than 25 nM; and `Cc1noc(C)c1-c1cnc2c3ccc(C(C)(C)O)cc3n(C(c3ccc(F)cc3F)C3CCOCC3)c2c1` (single isomer, unassigned) [Example 126, 2-{5-[(2,4-Difluorophenyl)(oxan-4-yl)methyl]-3-(dimethyl-1,2-oxazol-4-yl)-5H-pyrido[3,2-b]indol-7-yl}propan-2-ol], with less than 25 nM; and `Cn1nnc(CO)c1-c1cnc2c3ccc(S(C)(=O)=O)cc3n([C@H](c3ccccc3)C3CCOCC3)c2c1` [Example 179, (5-{7-Methanesulfonyl-5-[(S)-oxan-4-yl(phenyl)methyl]-5H-pyrido[3,2-b]indol-3-yl}-1-methyl-1H-1,2,3-triazol-4-yl)methanol], with less than 5 nM.
`Cc1noc(C)c1-c1cnc2c3ccc(S(C)(=O)=O)cc3n(C(c3ccccc3)C3CCC(F)(F)CC3)c2c1` (single isomer, unassigned) [Example 154, 4-{5-[(4,4-Difluorocyclohexyl)(phenyl)methyl]-7-methanesulfonyl-5H-pyrido[3,2-b]indol-3-yl}-3,5-dimethyl-1,2-oxazole]: where the note is “read-out: FRET BRD4 IC50”, the IC50 is less than 25 nM.
`Cc1noc(C)c1-c1cnc2c3ccc(C(C)(C)O)cc3n([C@H](c3ccccc3)C3CCC3)c2c1` [Example 13]: the IC50 (read-out: FRET BRD4 IC50) is less than 5 nM.
Turning to `COc1ccc(S(C)(=O)=O)c2c1c1ncc(-c3c(C)nnn3C)cc1n2[C@H](c1ccccc1F)C1CCOCC1` [Example 188, 5-{5-[(S)-(2-Fluorophenyl)(oxan-4-yl)methyl]-6-methanesulfonyl-9-methoxy-5H-pyrido[3,2-b]indol-3-yl}-1,4-dimethyl-1H-1,2,3-triazole], where the note is “read-out: FRET BRD4 IC50”, the IC50 was less than 5 nM.
On the same count and under the same terms, in the case of `[2H]C([2H])([2H])c1nnn(C)c1-c1cnc2c3ccc(S(C)(=O)=O)cc3n(C(c3cc(C)on3)C3CCOCC3)c2c1` (centres unmarked) [Example 331, 5-{7-Methanesulfonyl-5-[(5-methyl-1,2-oxazol-3-yl)(oxan-4-yl)methyl]-5H-pyrido[3,2-b]indol-3-yl}-4-(^2H3)methyl-1-methyl-1H-1,2,3-triazole] it was less than 5 nM; in that of `Cc1nnn(C)c1-c1cnc2c3ccc(C(C)(C)O)cc3n([C@@H](c3ccccc3)C3CCOCC3)c2c1` (single isomer, unassigned) [Example 55, 2-[3-(Dimethyl-1H-1,2,3-triazol-5-yl)-5-[oxan-4-yl(phenyl)methyl]-5H-pyrido[3,2-b]indol-7-yl]propan-2-ol], less than 5 nM; in that of `[2H]C([2H])([2H])c1nnn(C)c1-c1cnc2c3ccc(C(C)(C)O)cc3n(C(c3ccc(F)cn3)C3CCOCC3)c2c1` (single isomer, unassigned) [Example 317], less than 5 nM.
Same read-out and setting: then `[2H]C([2H])([2H])c1onc(C)c1-c1cnc2c3ccc(C(C)(C)O)cc3n([C@H](c3ccccc3F)C3CCOCC3)c2c1` [Example 285, 2-{5-[(S)-(2-Fluorophenyl)(oxan-4-yl)methyl]-3-[5-(^2H3)methyl-3-methyl-1,2-oxazol-4-yl]-5H-pyrido[3,2-b]indol-7-yl}propan-2-ol], with less than 5 nM.
On the same count and under the same terms, in the case of `Cc1nnn(C)c1-c1cnc2c3c(F)cc(C(C)(C)O)cc3n([C@H](c3ccccc3F)C3CCOCC3)c2c1` [Example 114, 2-[3-(Dimethyl-1H-1,2,3-triazol-5-yl)-9-fluoro-5-[(S)-(2-fluorophenyl)(oxan-4-yl)methyl]-5H-pyrido[3,2-b]indol-7-yl]propan-2-ol] it was less than 5 nM; in that of `COCc1nnn(C)c1-c1cnc2c3ccc(C(C)(C)O)cc3n([C@H](c3ccccc3)C3CCOCC3)c2c1` [Example 89, 2-{3-[4-(Methoxymethyl)-1-methyl-1H-1,2,3-triazol-5-yl]-5-[(S)-oxan-4-yl(phenyl)methyl]-5H-pyrido[3,2-b]indol-7-yl}propan-2-ol], less than 25 nM.
As to `Cc1noc(C)c1-c1cnc2c3ccc(C(=O)O)cc3n(C(c3ccccc3)C3CCOCC3)c2c1` (centres unmarked) [Example 44, 3-(Dimethyl-1,2-oxazol-4-yl)-5-[oxan-4-yl(phenyl)methyl]-5H-pyrido[3,2-b]indole-7-carboxylic acid], the IC50 (read-out: FRET BRD4 IC50) was less than 5 nM.

What is called IC50 is the concentration that inhibits the measured activity by half.
